Data published in patent EP3184514A1, “AUTOPHAGY INHIBITORS” (Deutsches Krebsforschungszentrum, priority 2015, dated 2017).
Like-named read-outs stand apart in the source and are kept apart here.

Experiments:
LC3B [1] = target: T1, LC3B (Homo sapiens, UniProt Q9GZQ8); assay: AlphaScreen interaction displacement assay (GST-LC3B / biotin-LIRtide); type: binding
T1 construct: made in house; host or cells: E. coli Rosetta (DE3)
Procedure: The AlphaScreen assay contained 50 mM Tris (pH 7.5), 100 mM NaCl, 0.01% Tween 20, 2 mM DTT, 1 % DMSO and 2-30 nM GST-LC3B and biotin-LIRtide 2-30 nM. The concentrations of GST-LC3B and biotin-LIRtide were experimentally chosen from a cross-titration assay exploring the different combinations of for each batch of protein used and when a new batch of buffer was prepared.
A gene encoding for human LC3B protein inserted in a pET-GST expression vector was used as a template. Rosetta (DE3) competent cells were transformed by started procedure, plated on an LB agar plate with ampicillin (100 µg/ml) and left overnight at 37 °C. Overnight culture was prepared from a single colony and shaken at 180 rpm at 37 °C. LB medium with ampicillin was inoculated with overnight culture (10 ml per 500 ml of LB) and shaken until the optical density at 600 nm (OD600) reached a value of approximately 0.6. Protein expression was then induced with 400 µM IPTG and further incubated for 4 hours. Bacterial culture was centrifuged for 20 minutes at 6000 rpm at 4 °C. The pellet was then resuspended in lysis buffer (20 mM TRIS-HCl pH 7.5, 10 mM EDTA, 5 mM EGTA, 150 mM NaCl, 0.5 % NP40, 1 % Triton X-100, 1 mM DTT, 2 mg/ml lysozyme, 0.05 U/µl benzonase, 1x protease inhibitor cocktail). Lysate was then stored at -20 °C over night. Sample was thawed in water bath and sonicated on ice (40 % amplitude, 30 seconds pulse/30 seconds pause cycle). Lysate was centrifuged at 10000xg at 4 °C for half an hour. Meanwhile, 500 µl of glutathione sepharose beads was equilibrated with lysis buffer and then added to the supernatant. The mixture was incubated and rotated at room temperature for 2 hours. After binding of the protein to the beads, beads were spun down at 500xg at 4 °C for 5 minutes. Pellet was then washed with cold wash buffer at least four times (20 mM Tris-HCl pH 7.5, 10 mM EDTA, 5 mM EGTA, 150 mM NaCl, 1 mM DTT), dried and stored in 5 % glycerol at 4 °C.

LC3B [2] = assay: cellular autophagy screening: LC3B spots by immunocytochemistry and automated confocal imaging; type: cell-based; conditions: relative to negative DMSO control, 100 µM, 1 hour; for LC3B Inhibition cell based Fold increase of LC3B spots: Table 2a; for LC3B inhibition cell based Fold increase of LC3B spots [DMSO control 1.0]: Table 1-a, n.e. means no effect
Procedure: For screening purposes, cells were seeded in 384 well plates and left over night for attachment.
Afterwards, medium was removed and 4 % (w/v) paraformaldehyde (PFA) in PBS buffer was added to the cells for 20 minutes, incubated at room temperature. Cells were permeabilized with 0.1 % (v/v) Triton X-100 for 10 min at room temperature and washed with PBS. Cells were blocked with 3 % (w/v) bovine serum albumin (BSA) in PBS for 45 minutes at 37 °C and then incubated with anti-LC3B (PM036, MBL) or anti-p62 (PM045 or M162-3, MBL) primary antibody diluted in 0.3 % BSA (1:2000 or 1:500) for 1.5-2 hours at 37 °C. Cells were washed three times with PBS.
384 well plates were then analyzed with an automated confocal microscope Opera (PerkinElmer) enabling high throughput high content screening image analysis. […] A water immersion 60x objective was used for optical slicing and stacking (5x0.5 µm stacks). […] Signal was detected with a fast gated CCD camera. Acapella software (PerkinElmer) is an algorithm based high content imaging and analysis software used in multi-parametric multiplex assays. Acapella was used to follow cell viability (i.e. number of cells) and the number of LC3B and p62 spots per cell.
The LC3B protein is a ubiquitin-like protein that can be conjugated to phosphatidylethanolamine (PE) in the membrane of the incipient autophagosome. The nonlipidated and lipidated forms are usually referred to as LC3B-I and LC3B-II, respectively. […] Autophagic flux is often inferred on the basis of LC3B-II turnover, measured by western blot (WB) or immunofluorescence (IF) in the presence and absence of lysosomal degradation. […] Lysosomal degradation can be prevented e.g. through the use of compounds that neutralize the lysosomal pH such as Bafilomycin A1 (BafA1) or chloroquine (CQ). […] An additive or supra-additive effect in LC3B-II levels (WB) and LC3B-positive punctae numbers (IF) may indicate that the treatment enhances autophagic flux. […] This assay can be complemented by simultaneous monitoring of autophagosomal substrates or autophagosomal substrate receptors (e.g. SQSTM1/p62) by WB and/or IF. For example, an increase in LC3B-II levels in combination with the accumulation of SQSTM1/p62 is indicative of a blockage of the autophagy pathway at terminal stages.

[3] = Table 2a, read-out: LC3B Inhibition cell free IC50
[4] = Table 1-a, n.e. means no effect, read-out: LC3B inhibition cell free IC50
[5] = Table 1-a, n.e. means no effect

Structure (SMILES) | IC50 (LC3B [1]; [3]) [µM] | LC3B Inhibition cell based Fold increase of LC3B spots (LC3B [2]) | LC3B inhibition cell based Fold increase of LC3B spots [DMSO control 1.0] (LC3B [2]) | IC50 (LC3B [1]; [4]) [µM] | LC3B inhibition cell free IC50 (LC3B [1]; [5])
CC(C)=CCc1cc(C(=O)Nc2c(O)c3ccc(O)c(C)c3oc2=O)ccc1O [Compound 2-1, N-(4,7-dihydroxy-8-methyl-2-oxo-2H-chromen-3-yl)-4-hydroxy-3-(3-methylbut-2-en-1-yl)benzamide] | 87 | – | – | – | –
COC1C(OC(N)=O)C(OC(C)=O)C(Oc2ccc3c(O)c(NC(=O)c4ccc(OC(C)=O)c(CC=C(C)C)c4)c(=O)oc3c2C)OC1(C)C (stereo not drawn) [Compound 2-2] | 19.3 | 1.5 | – | – | –
COC1C(OC(N)=O)C(O)C(Oc2ccc3c(O)c(NC(=O)c4ccc(O)c(CCC(C)C)c4)c(=O)oc3c2C)OC1(C)C (stereo not drawn) [Compound 2-4, 5-hydroxy-6-((4-hydroxy-3-(4-hydroxy-3-isopentylbenzamido)-8-methyl-2-oxo-2H-chromen-7-yl)oxy)-3-methoxy-2,2-dimethyltetrahydro-2H-pyran-4-y/carbamate] | 4.8 | 1.2 | – | – | –
COC1C(OC(N)=O)C(OC(C)=O)C(Oc2ccc3c(O)c(NC(=O)C(Cc4ccccc4)NC(=O)OC(C)(C)C)c(=O)oc3c2C)OC1(C)C (stereo not drawn) [Compound 2-7] | 145 | 1.0 | – | – | –
Cc1c(O)ccc2c(O)c(NC(=O)C(Cc3ccccc3)NC(=O)OC(C)(C)C)c(=O)oc12 (stereo not drawn) [Compound 2-8] | 122 | 1.0 | – | – | –
Cc1c(O)ccc2c(O)c(NC(=O)C(CC(C)C)NC(=O)OC(C)(C)C)c(=O)oc12 (stereo not drawn) [Compound 2-9] | 73.3 | 1.2 | – | – | –
Cc1c(O)ccc2c(O)c(NC(=O)C(CCc3ccccc3)NC(=O)OC(C)(C)C)c(=O)oc12 (stereo not drawn) [Compound 2-10] | 155 | 1.0 | – | – | –
Cc1c(O)ccc2c(O)c(NC(=O)c3cccc(-c4ccccc4)c3)c(=O)oc12 [Compound 2-11] | 63 | 1.1 | – | – | –
Cc1c(O)ccc2c(O)c(NC(=O)c3cccc(Oc4ccccc4)c3)c(=O)oc12 [Compound 2-12] | 54 | 1.1 | – | – | –
Clc1ccc(CSC2=NCN(Cc3cccnc3)CN2)cc1 [Compound I-2, 6-((4-chlorobenzyl)thio)-3-(pyridin-3-ylmethyl)-12,3,4-tetrahydro-1,3,5-triazine] | – | – | 3.2 | 16 | –
Fc1ccc(CSC2=NCN(Cc3cccnc3)CN2)cc1 [Compound I-3, 6-((4-fluorobenzyl)thio)-3-(pyridin-3-ylmethyl)-1,2,3,4-tetrahydro-1,3,5-triazine] | – | – | 1.8 | 23.6 | –
c1ccc(CSC2=NCN(Cc3cccnc3)CN2)cc1 [Compound I-4, 6-(benzylthio)-3-(pyridin-3-ylmethyl)-1,2,3,4-tetrahydro-1,3,5-triazine] | – | – | 1.7 | 19.5 | –
FC(F)(F)c1ccc(CSC2=NCN(Cc3cccnc3)CN2)cc1 [Compound I-5, 3-(pyridin-3-ylmethyl)-6-((4-(trifluoromethyl)benzyl)thio)-1,2,3,4-tetrahydro-1,3,5-triazine] | – | – | 3.2 | 30.9 | –
COc1ccc(CSC2=NCN(Cc3cccnc3)CN2)cc1 [Compound I-6, 6-((4-methoxybenzyl)thio)-3-(pyridin-3-ylmethyl)-1,2,3,4-tetrahydro-1,3,5-triazine] | – | – | 1.8 | 12.3 | –
CC(C)CCNC(=O)c1ccc(CSC2=NCN(Cc3cccnc3)CN2)cc1 [Compound I-7, N-isopentyl-4-(((5-(pyridin-3-ylmethyl)-1,4,5,6-tetrahydro-1,3,5-triazin-2-yl)thio)methyl)benzamide] | – | – | 3.1 | 26.6 | –
Brc1cccc(CSC2=NCN(Cc3cccnc3)CN2)c1 [Compound I-8, 6-((3-bromobenzyl)thio)-3-(pyridin-3-ylmethyl)-1,2,3,4-tetrahydro-1,3,5-triazine] | – | – | 3.0 | 21 | –
COc1cccc(CSC2=NCN(Cc3cccnc3)CN2)c1 [Compound I-9, 6-((3-methoxybenzyl)thio)-3-(pyridin-3-ylmethyl)-1,2,3,4-tetrahydro-1,3,5-triazine] | – | – | n.e. | 18.5 | –
c1ccc(Oc2cccc(CSC3=NCN(Cc4cccnc4)CN3)c2)cc1 [Compound I-10, 6-((3-phenoxybenzyl)thio)-3-(pyridin-3-ylmethyl)-1,2,3,4-tetrahydro-1,3,5-triazine] | – | – | 6.1 | 1 | –
CC(C)CCNC(=O)c1cccc(CSC2=NCN(Cc3cccnc3)CN2)c1 [Compound I-11, N-isopentyl-3-(((5-(pyridin-3-ylmethyl)-1,4,5,6-tetrahydro-1,3,5-triazin-2-yl)thio)methyl)benzamide] | – | – | n.e. | 12.2 | –
COC(=O)[C@H](CC(C)C)NC(=O)c1cccc(CSC2=NCN(Cc3cccnc3)CN2)c1 [Compound I-12, methyl(3-(((5-(pyridin-3-ylmethyl)-1,4,5,6-tetrahydro-1,3,5-triazin-2-yl)thio)methyl)benzoyl)leucinate] | – | – | 5.0 | 8.9 | –
Fc1ccc(CN2CN=C(SCc3ccc(Br)cc3)NC2)cc1 [Compound I-14, 6-((4-bromobenzyl)thio)-3-(4-fluorobenzyl)-1,2,3,4-tetrahydro-1,3,5-triazine] | – | – | 5.8 | – | n.e
Fc1ccc(CN2CN=C(SCc3cccc(Oc4ccccc4)c3)NC2)cc1F [Compound I-18, 3-(3,4-difluorobenzyl)-6-((3-phenoxybenzyl)thio)-1,2,3,4-tetrahydro-1,3,5-triazine] | – | – | – | – | n.e
Fc1cccc(CN2CN=C(SCc3ccc(Br)cc3)NC2)c1 [Compound I-19, 6-((4-bromobenzyl)thio)-3-(3-fluorobenzyl)-1,2,3,4-tetrahydro-1,3,5-triazine] | – | – | – | – | n.e.
Fc1cccc(CN2CN=C(SCc3cccc(Oc4ccccc4)c3)NC2)c1 [Compound I-20, 3-(3-fluorobenzyl)-6-((3-phenoxybenzyl)thio)-1,2,3,4-tetrahydro-1,3,5-triazine] | – | – | – | – | n.e.
CCN(CC)CCCC(C)Nc1ccnc2cc(Cl)ccc12 (stereo not drawn) [chloroquine, reference compound] | – | 4.4 | 4.4 | – | –
CCC(=O)N1CCN(c2ccc(-n3c(=O)ccc4cnc5ccc(-c6cnc7ccccc7c6)cc5c43)cc2C(F)(F)F)CC1 [torin 1, reference compound] | – | 3.1 | 3.1 | – | –
